Reference: ChEMBL document CHEMBL5131478, “3,5-Bis(trifluoromethyl)phenylsulfonamides, a novel pancreatic cancer active lead. Investigation of the terminal aromatic moiety” (Bioorg Med Chem Lett, 2022)

Assays:
MCF-10A = assay: Cytotoxicity against human MCF-10A cells assessed as inhibition of cell growth at 25 uM incubated for 72 hrs by MTT assay; type: toxicity, cell-based
MIA PaCa-2 = assay: Growth inhibition of human MIA PaCa-2 cells incubated for 72 hrs by MTT assay; type: functional
HT-29 = assay: Growth inhibition of human HT-29 cells incubated for 72 hrs by MTT assay; type: functional
MCF7 = assay: Growth inhibition of human MCF7 cells incubated for 72 hrs by MTT assay; type: functional
A2780 = assay: Growth inhibition of human A2780 cells incubated for 72 hrs by MTT assay; type: functional
NCI-H460 = assay: Growth inhibition of human NCI-H460 cells incubated for 72 hrs by MTT assay; type: functional
A-431 = assay: Growth inhibition of human A-431 cells incubated for 72 hrs by MTT assay; type: functional
DU-145 = assay: Growth inhibition of human DU-145 cells incubated for 72 hrs by MTT assay; type: functional
BE(2)-C = assay: Growth inhibition of human BE2C cells incubated for 72 hrs by MTT assay; type: functional
U-87 MG = assay: Growth inhibition of human U87 cells incubated for 72 hrs by MTT assay; type: functional, U-87MG ATCC
[1] = Growth inhibition of human SJG2 cells incubated for 72 hrs by MTT assay; type: functional; details: SJ-G2
[2] = Growth inhibition of human MCF-10A cells incubated for 72 hrs by MTT assay; type: toxicity, cell-based
ASPC1 = assay: Growth inhibition of human ASPC1 cells incubated for 72 hrs by MTT assay; type: functional
BXPC-3 = assay: Growth inhibition of human BXPC-3 cells incubated for 72 hrs by MTT assay; type: functional
Capan-2 = assay: Growth inhibition of human Capan-2 cells incubated for 72 hrs by MTT assay; type: functional
HPAC = assay: Growth inhibition of human HPAC cells incubated for 72 hrs by MTT assay; type: functional
PANC-1 = assay: Growth inhibition of human PANC-1 cells incubated for 72 hrs by MTT assay; type: functional

SMILES | GI50 (MIA PaCa-2) | GI50 (HT-29) | GI50 (MCF7) | GI50 (A2780) | GI50 (NCI-H460) | GI50 (A-431) | GI50 (DU-145) | GI50 (U-87 MG) | GI50 (ASPC1) | GI50 (BXPC-3) | GI50 (PANC-1) | Activity (MCF-10A) | GI50 (BE(2)-C) | GI50 [1] | GI50 at 72 h [2] | GI50 (Capan-2) | GI50 (HPAC)
O=S(=O)(NCCNCc1ccc(Br)cc1)c1cc(C(F)(F)F)cc(C(F)(F)F)c1 | – | – | – | – | – | – | – | – | – | – | – | Non-Toxic | – | – | – | – | –
O=S(=O)(NCCNCc1ccc(C(F)(F)F)cc1)c1cc(C(F)(F)F)cc(C(F)(F)F)c1 | – | – | – | – | – | – | – | – | – | – | – | Non-Toxic | – | – | – | – | –
O=S(=O)(NCCNCc1ccc(-c2ccccc2)cc1)c1cc(C(F)(F)F)cc(C(F)(F)F)c1 | 2.7 µM | 2.7 µM | 1.4 µM | 2.6 µM | 2.6 µM | 2.4 µM | 2.5 µM | 1.4 µM | 2.8 µM | 1.6 µM | 4.2 µM | – | 2.7 µM | 2.5 µM | 3.3 µM | 2.4 µM | 2.8 µM

Second part, led by results:

GI50 (MIA PaCa-2) | GI50 (HT-29) | GI50 (MCF7) | GI50 (A2780) | GI50 (NCI-H460) | GI50 (A-431) | GI50 (DU-145) | GI50 (U-87 MG) | GI50 (ASPC1) | GI50 (BXPC-3) | GI50 (PANC-1) | SMILES | Activity (MCF-10A) | GI50 (BE(2)-C) | GI50 [1] | GI50 at 72 h [2] | GI50 (Capan-2) | GI50 (HPAC)
2.3 µM | 2.2 µM | 1.9 µM | 2.6 µM | 2.5 µM | 2.5 µM | 2.6 µM | 2.1 µM | 2.8 µM | 1.5 µM | 2.2 µM | O=S(=O)(NCCCNCc1ccc(Br)cc1)c1cc(C(F)(F)F)cc(C(F)(F)F)c1 | – | 2.7 µM | 2.4 µM | 3.1 µM | 2 µM | 2.9 µM
2.3 µM | 2 µM | 2.1 µM | 2.9 µM | 2.5 µM | 2.8 µM | 2.7 µM | 2.3 µM | 2.7 µM | 1.4 µM | 2.5 µM | CC(C)(C)c1ccc(CNCCCNS(=O)(=O)c2cc(C(F)(F)F)cc(C(F)(F)F)c2)cc1 | – | 2.5 µM | 2.4 µM | 3.2 µM | 2.1 µM | 2.3 µM
